For data set [1], the target named is T1, CSF1R (Homo sapiens, UniProt P07333).
T1 construct: purchased Abcam
The data set is described as follows: FRET-based Z'-LYTE kinase assay, binding affinity for CSF1R. It is filed as biochemical. As to conditions: FRET-based method, 1 mM ATP, mean ± S.D. of three measurements.
Experimental: The binding affinity of ligand 1 for CSF1R was measured using a fluorescence resonance energy transfer (FRET)-based method.
The final concentration of DMSO in the incubation mixture was 1%. The mixtures were incubated at room temperature for 1 h, followed by development reaction incubations at room temperature for 1 h. The fluorescence intensity of the incubation mixtures was measured (excitation, 400 nm; emission, 445 nm (donor) and 520 nm (acceptor)) using a Mithras^2 LB 943 monochromator multimode microplate reader (Berthold Technologies, Bad Wildbad, Germany), and the phosphorylation extent of the FRET-peptide was calculated. All experiments were performed in triplicate, and the IC50 values represent the average of three experimental determinations.

Data set [2] is described as follows: octanol-water partition coefficient. In kind it is physicochemical. As to conditions: 1-octanol/water; read-out: log P (octanol-water partition coefficient). As to the method:
Radioligand [^18F]1 was dissolved in 800 μL 1-octanol and mixed with 800 μL water, vortexed vigorously for 5 min, and centrifuged. Two layers were separated, and 100 μL aliquots of the 1-octanol and aqueous layers were removed and counted. Samples from the 1-octanol and aqueous layers were repartitioned until consistent values were obtained. The log P is expressed as the logarithm of the ratio of the counts per minute from octanol versus that of water.

Data set [3] has as its target T1, CSF1R. The data set is described as follows: binding study of radioligand on CSF1R-coated well plates. How it is done: A binding study of radioligand [^18F]1 for CSF1R was also performed using well plates coated with CSF1R.
A binding study of [^18F]1 for CSF1R was performed using detachable 96-well polystyrene plates (Nest Scientific, Rahway, NJ, USA). The plates were coated with 50 μL of CSF1R (200 μg/mL) in 0.05 M carbonate-bicarbonate buffer (pH 9.6). Non-coated plates were used for a control experiment. The CSF1R-coated and non-coated plates were incubated at 4 °C overnight and washed three times with PBS-T (20 mM PBS (pH 7.4) with 0.05% Tween-20). The unoccupied sites were blocked with blocking buffer (5% BSA in PBS-T) at room temperature for 1 h, and the plates were washed three times with PBS-T. [^18F]1 was dissolved in DMSO, and two-fold serial dilutions ranging from 1:100 to 1:400 were made from the radioligand solution. The diluted radioligand solutions were added to the CSF1R-coated and non-coated wells, which were then incubated at room temperature for 1 h. After incubation, the plates were washed three times with PBS-T. The wells were detached, and the radioligand bound to the wells was measured using a gamma counter and expressed as counts per minute (cpm). All experiments were performed in triplicate.

Data set [4] can be described thus: ex vivo biodistribution in control, LPS and LPS+block mice. The settings on record: for blood uptake / brain uptake / femur uptake / kidney uptake / liver uptake / muscle uptake / spleen uptake: 45 min after i.v. injection, n = 4. Also noted: species or system ICR mice. As to the method:
Ex vivo biodistribution studies were performed in three groups of mice (control, LPS, and LPS+block groups) at 45 min after intravenous (i.v.) injection of [^18F]1. […] Therefore, we performed the ex vivo biodistribution studies at 45 min after injection of [^18F]1 (Table 2). […] The relatively low level of inhibition can be attributed to the injection route and time of the blocking agent, i.p. administration 5 min prior to radioligand injection, which might not have allowed time for sufficient blocking. However, most of the PET radioligands currently developed for CSF1R imaging have low uptake or high non-specific binding in the brains of rodents and non-human primates. […] In this context, further blocking studies of [^18F]1 need to be conducted using the optimized injection time points of the blocking agents and using other potent CSF1R inhibitors as the blocking agents. […] In addition, these biodistribution data matched with the whole-body PET images of the control and LPS mice (Figure S2).
ICR male mice aged between 5 and 6 weeks were used in this study. The mice were provided drinking water and a normal diet ad libitum and were maintained under a 12 h light-dark cycle at 24 ± 1 °C with 50% humidity. The LPS-treated mouse model was prepared by injecting LPS (10 mg/kg in saline) i.p. into mice, and all experiments were carried out on the third day after LPS injection. Tissue radioactivity was counted using an automatic gamma counter (PerkinElmer, Waltham, MA, USA). MicroPET/CT images were acquired using an Inveon microPET/CT scanner (Siemens Medical Solutions, Knoxville, TN, USA).
ICR mice were divided into three groups: control, LPS, and LPS+block groups (n = 4 per group). […] Control and LPS-treated mice were injected i.p. with 100 μL of vehicle (10% DMSO-saline) at 5 min prior to the radioligand injection. At 45 min after radioligand injection, mice were sacrificed by cervical dislocation, and the blood and major tissues (brain, muscle, femur, liver, spleen, and kidney) were separated, weighed, and counted. Data are expressed as a percentage of injected dose per gram of tissue (% ID/g).

The nature of data set [5]: dynamic microPET/CT imaging, whole brain time activity curve. It is filed as in vivo, ICR mice. The settings on record: control and LPS mouse, whole brain TAC. An excerpt:
Dynamic PET/CT images of control and LPS mice were acquired, and the brain uptake was higher in the LPS mouse than in the control mouse (Figure 4A). […] In the control mouse, there was uptake in the decreasing order of the thalamus, striatum, hypothalamus, frontal cortex, and cerebellum (Figure 4C). In the 5.5-week-old mice used in our study, the frontal cortex and cerebellum had similar levels of uptake, although the cerebral cortex has markedly higher CSF1R expression than does the cerebellum in older adult mice. In the LPS mouse, a pattern similar to that of the control mouse was observed, with high uptake in the thalamus and striatum, and intermediate to low uptake in the hypothalamus, cerebellum, and frontal cortex (Figure 4C).
Dynamic PET scans of mice (one control and one LPS) were initiated simultaneously with tail vein injection of [^18F]1 (7.4 ± 0.1 MBq/mouse) and performed for 60 min (15 s × 8 frames, 30 s × 10 frames, 60 s × 3 frames, 240 s × 5 frames, 300 s × 6 frames, 32 frames in total); CT images followed for 20 min. […]
Analysis of dynamic PET data was performed using the PMOD 3.308 software (PMOD Technologies, Zurich, Switzerland). […] Several volumes of interest (VOIs) were determined on the mouse brain template: whole brain, striatum (mean value of the left and right striata), thalamus, hypothalamus, frontal cortex, and cerebellum. […]

The nature of data set [6]: metabolism study, HPLC of brain homogenates and blood samples. It is filed as in vivo, ICR mice. The settings on record: control mice. As to the method: In order to confirm that the brain uptake was due to the radioligand, we analyzed the brain homogenates and blood samples of control mice using HPLC. […] However, approximately 65% of the radioligand in the blood samples was converted to polar radiometabolites within 30 min after injection (Figure S3).
ICR mice (n = 1 per time point) were injected with [^18F]1 (18.5 MBq) via a tail vein. At 5 and 30 min after injection, mice were sacrificed, and samples of brain and blood were obtained. The samples were homogenized in 1 mL of acetonitrile and centrifuged. The supernatants were analyzed by HPLC using an analytical column eluted with a 45:55 mixture of 0.05 M ammonium formate (aq.) and acetonitrile at a flow rate of 1 mL/min. Eluates were monitored using a NaI(T1) radioactivity detector.

Data set [7] deals with CSF1R. Also noted: method as in PMID 33757319. As to conditions: rhesus monkey; cited from earlier work.
Setting [8] is: LPS+block mice (CPPC 1 mg/kg i.p. 5 min before).

T1 sequence (P07333 20-972, species assumed): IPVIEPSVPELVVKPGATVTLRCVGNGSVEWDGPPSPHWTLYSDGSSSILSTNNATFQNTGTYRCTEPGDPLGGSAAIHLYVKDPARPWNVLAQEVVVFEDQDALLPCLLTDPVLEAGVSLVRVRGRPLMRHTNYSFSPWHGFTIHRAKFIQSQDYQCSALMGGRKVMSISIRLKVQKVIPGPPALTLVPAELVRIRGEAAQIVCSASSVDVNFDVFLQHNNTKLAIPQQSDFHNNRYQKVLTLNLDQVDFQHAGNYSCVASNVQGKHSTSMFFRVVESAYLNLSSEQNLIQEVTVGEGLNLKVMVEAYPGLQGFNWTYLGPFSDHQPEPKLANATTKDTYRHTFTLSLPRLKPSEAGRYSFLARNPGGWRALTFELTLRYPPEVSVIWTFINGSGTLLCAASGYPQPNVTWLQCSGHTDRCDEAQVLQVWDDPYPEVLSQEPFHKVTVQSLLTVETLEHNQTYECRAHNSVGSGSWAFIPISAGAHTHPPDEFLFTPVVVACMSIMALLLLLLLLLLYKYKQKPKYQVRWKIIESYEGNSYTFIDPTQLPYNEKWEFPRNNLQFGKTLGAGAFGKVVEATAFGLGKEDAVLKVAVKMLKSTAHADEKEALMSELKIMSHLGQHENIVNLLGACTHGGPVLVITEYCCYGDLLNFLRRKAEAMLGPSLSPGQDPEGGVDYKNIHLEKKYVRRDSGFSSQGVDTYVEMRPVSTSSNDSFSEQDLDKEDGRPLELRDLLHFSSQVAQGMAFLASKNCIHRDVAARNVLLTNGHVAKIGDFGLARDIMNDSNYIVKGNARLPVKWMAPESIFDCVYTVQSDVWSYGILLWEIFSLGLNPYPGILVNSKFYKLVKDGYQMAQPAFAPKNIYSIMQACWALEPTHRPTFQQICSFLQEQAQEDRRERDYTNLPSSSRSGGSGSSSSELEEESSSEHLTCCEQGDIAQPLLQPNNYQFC

`N#Cc1ccc(C(=O)Nc2ccc(N3CCN(CCF)CC3)cc2N2CCCCC2)o1` [Ligand 1, 5-Cyano-N-(4-(4-(2-fluoroethyl)piperazin-1-yl)-2-(piperidin-1-yl)phenyl)furan-2-carboxamide] came in with an IC50 in data set [1] of 3.42 ± 0.33 nM.

For the molecule `N#Cc1ccc(C(=O)Nc2ccc(N3CCN(CC[18F])CC3)cc2N2CCCCC2)o1` [[^18F]1, 5-cyano-N-(4-(4-(2-[^18F]fluoroethyl)piperazin-1-yl)-2-(piperidin-1-yl)phenyl)furan-2-carboxamide], the logP in data set [2] was 2.3 ± 0.01. Further, in data set [3] (0.93 kBq radioligand), the “radioligand bound to CSF1R-coated wells relative to non-coated wells (control)” value was found to be 3.31 fold. In addition, the “radioligand bound to CSF1R-coated wells relative to non-coated wells (control)” value in data set [3] (1.85 kBq radioligand) was 5.07 fold. Further, in data set [3] (3.7 kBq radioligand), the “radioligand bound to CSF1R-coated wells relative to non-coated wells (control)” value was 7.14 fold. In addition, the “increase of brain uptake in LPS mice compared to control mice” value in data set [4] (45 min after radioligand injection) was determined as 78%. In data set [4] (LPS mice), this molecule yielded a blood uptake of 1.21 ± 0.11 % ID/g, a brain uptake of 2.14 ± 0.19 % ID/g, a femur uptake of 1.95 ± 0.44 % ID/g and a kidney uptake of 2.23 ± 0.08 % ID/g. Besides, in data set [4] (LPS mice), the liver uptake is recorded as 6.04 ± 0.91 % ID/g, the muscle uptake was 1.03 ± 0.07 % ID/g and the spleen uptake is given as 2.47 ± 0.19 % ID/g. Also, in data set [4] (setting [8]), the blood uptake was 1.30 ± 0.11 % ID/g, the brain uptake stood at 1.67 ± 0.16 % ID/g, the femur uptake is reported as 2.11 ± 0.37 % ID/g and the kidney uptake was 2.04 ± 0.10 % ID/g. In addition, in data set [4] (setting [8]), the liver uptake is reported as 3.15 ± 0.62 % ID/g, the muscle uptake stood at 1.20 ± 0.19 % ID/g and the spleen uptake amounted to 1.45 ± 0.13 % ID/g. Besides, in data set [4] (control mice), the blood uptake worked out at 0.93 ± 0.05 % ID/g, the brain uptake amounted to 1.20 ± 0.06 % ID/g, the femur uptake was 1.80 ± 0.09 % ID/g and the kidney uptake stood at 1.97 ± 0.05 % ID/g. In data set [4] (control mice), this molecule displayed a liver uptake of 6.87 ± 0.48 % ID/g, a muscle uptake of 0.96 ± 0.10 % ID/g and a spleen uptake of 1.58 ± 0.20 % ID/g. Besides, the “time of peak whole brain uptake after radioligand injection” value in data set [5] is on record as not above 3 min. The “radioligand in blood converted to polar radiometabolites” value in data set [6] (blood samples, within 30 min after injection) was “approximately 65%”. Further, the “state of radioligand in the brain” value in data set [6] (brain homogenates at 5 and 30 min after injection) is listed as “intact”.

As for `COc1ccc(COc2ccc(Cc3cnc(N)nc3N)cc2O[11CH3])cc1` [[^11C]GW2580, 5-(3-[^11C]methoxy-4-((4-methoxybenzyl)oxy)benzyl)pyrimidine-2,4-diamine], the “blocking of brain uptake with GW2580” value in data set [7] is 30%.

In general, IC50 refers to the midpoint of a concentration-inhibition curve. Low readings indicate higher potency, high ones lower potency.

(Values after publication PMC8954204, “Synthesis and Evaluation of a ^18F-Labeled Ligand for PET Imaging of Colony-Stimulating Factor 1 Receptor” (Pharmaceuticals, 2022).)
